“Also recorded” adds a separate entry of the source.
How the values were obtained:
[1] = molecular target: T1, mutant huntingtin aggregates (HDex1Q68 fused to ECFP/EYFP) (Homo sapiens, UniProt P42858, INS38QQQQQQQQQQQQQQQQQQQQQQQQQQQQQQQQQQQQQQQQQQQQQQQ); test: Cellular FRET aggregation assay in stable Tet-off CHO-AA8/Q68-Q68 cells; type: cell-based; details: 48 h, 2% DMSO
Protocol: To determine the potential of possibly inhibiting substances the inventors performed dose response assays at concentrations ranging from 1, to 100 μM.
Screening was performed in 96-well plates (greiner bio-one) containing 1×10^4 cells/well of the stably inducible tet off cell lines htt-mut (six-fold) and CHO-AA8 line (three fold) for background control. Simultaneously, each compound was checked for its potential autofluorescence.
Two stable inducible CHO Tet off cell lines were constructed expressing simultaneously wildtype (CHO-AA8/Q17-Q17) or mutant (CHO-AA8/Q68-Q68) huntingtin fragments fused to ECFP or EYFP (FIG. 1B) after withdrawal of doxicycline (dox). Basal and induced expression levels of huntingtin fusion proteins were examined by Western blot analysis at different time intervals (4, 24, 48, and 72 hours). […] For the screening approach stable inducible huntingtin expressing cell lines were seeded in 96-well plates and the fluorescence intensities were measured with a fluorescence plate reader.
The test compounds were mixed in a fresh doxicycline-free medium with 2% DMSO and added to the Tet off cell lines two to three hours after seeding and attachment of the cells.
(§1) The FRET-measurement was performed 48 h later.
Subsequently, a second screening round was performed at concentration range 1, 3, and 10 μM, respectively.

CHO-AA8/Q68-Q68 cells = test: Propidium iodide exclusion assay (viability, cell number) following the FRET assay
Protocol: CHO-AA8/Q68-Q68, CHO-AA8/Q17-Q17 and CHO-AA8 cells were seeded in 96 well plates. After attachment of the cells, the medium was exchanged for Ham's F 12 medium containing 10% doxicycline free FBS and 2% DMSO supplemented with compounds. After 48 h the fluorescence intensities of cells were measured using a fluorescence plate reader (Fluoroscan Ascent, Thermo Scietific) and filtersets for CFP (ex 444 nm, em 485 nm), YFP(ex 485 nm, em 538 nm) and FRET (ex 444 nm, em 538 nm). After correction of background fluorescence (subtraction of CHO-AA8 cell fluorescence intensities) the FRET signal was determined using the method: FA=(FRET-a*YFP)/CFP with a=0.11 (Zal u. Gascoigne 2004, Zal et al. 2002). In following, the viability of cells was measured using a propidium iodide exclusion assay (Sattler et al. 1997). PI was added to the cells at final concentration of 0.15 mg/ml. After 15 minutes the PI fluorescence intensity was measured (ex 530 nm, em 620 nm). The cells were then lysed with 0.5% Triton X-100 (TX100) and the PI fluorescence intensity was measured again. Viability of cells was calculated as viability=1−(PIbefore TX100/PIafter TX100).
as §1

[2] = tested on: proteasome (chymotrypsin activity); test: Proteasome activity, hydrolysis of Suc-LLVY-AMC in CHO-AA8/Tet-Off cells; type: cell-based; details: 24 h
Protocol: The concentration-dependent effect of khayanthone, 17-AAG, Gedunin, and Lactacystin on proteasome activity was tested using a non-recombinant CHO Tet-Off cell line. Cells were incubated with the given compounds for 24 h. Subsequently, proteasome activities were measured by a fluoroscan according to the degradation rate of a fluorogenic substrate (Suc-LLVY-AMC). In correlation to DMSO treated controls khayanthone led to an increase of proteasome activity about 40-50% in CHO-AA8/Tet-Off cells.
To confirm this we examined the chymotrypsin activity of the proteasome under the influence of khayanthone and compared data with known substances influencing the proteasomes' activity (gedunin, lactacystin, 17-AAG) (FIG. 4). Adminstration of the selected substances was performed for 24 h, and subsequently chymotrypsin activity of the UPS was determined by measuring the hydrolysis of a fluorogenic reporter (Suc-LLVY-AMC, Biomol).

HSP40 = test: Western blot of heat shock protein expression in SH-SY5Y cells; type: cell-based; details: SH-SY5Y cell line, increasing concentration
Protocol: (§2) Utilizing Western-blot analysis concentration-dependent effects of khayanthone on protein expression of HSP40, HSP70, and HSP90 were detected. Immuno detection was performed using HSP specific monoclonal antibodies, respectively.
(§3) We examined effects of khayanthone on the expression of heat shock proteins, preferentially HSP40, HSP70 and HSP90, because of their impacts in neurodegenerative disease and cancer. Heat shock protein expression was determined in neuronal cells (SH-SY5Y cell line) by western blot analysis.

HSP70 = test: as above; type: cell-based; details: SH-SY5Y cell line, increasing concentration
Protocol: as §2, §3

HSP90 = test: as above; type: cell-based; details: SH-SY5Y cell line, increasing concentration
Protocol: as §2, §3

[3] = tested on: flies expressing Htt-Exon-1Q93 in all neurons; test: Climbing assay in a Drosophila model of HD; type: in vivo
Protocol: (A) Expression of the htt proteins in transgenic flies is driven by the bipartite expression system upstream activator sequence (UAS)-GAL4 (yeast transcriptional activator). Stocks w; P(w^+mC; w+; elav−GAL4/CyO) and w; P(w+mC=UAS-Q93httexon1) were crossed in order to obtain flies expressing mutant htt fragments in all neurons.
(B, C) Flies expressing Htt-Exon-1Q93 were fed with khayanthone (100 μM, 250 μM) or DMSO supplemented food. Effects of khayanthone on flies' motor ability were measured with the climbing assay. For this purpose flies were placed in a vial, then the height half of them were able to climb from the bottom within 60 sec was determined. In addition the time was measured which half of them needed to climb up 6 cm. […] Each curve represents a population of ˜40 flies. Error bars represent the SD of 5 repeats on each measuring point.
Flies were mated at 25° C. in vials containing standard food supplemented with different concentrations of the compound tested. Adults were transferred to vials containing fresh food supplemented with different concentrations of khayanthone (100 μM, 250 μM, and DMSO control) every 3 days after eclosion.
Effects of khayanthone on the flies' motor ability were measured with the climbing assay. For this purpose flies were placed in a vial, then the height, which half of them were able to climb from the bottom within 60 sec, was determined. In addition, the time was measured which half of them needed to climb up 6 cm. The assays were repeated five times on each population sample.

[4] = molecular target: T1, mutant huntingtin aggregates (HDex1Q68 fused to ECFP/EYFP); test: Cellular FRET aggregation assay in stable Tet-off CHO-AA8/Q68-Q68 cells; type: cell-based
[5] = after day 18, food with 100 μM, 250 μM

T1 sequence (P42858 1-88, stated change not applied): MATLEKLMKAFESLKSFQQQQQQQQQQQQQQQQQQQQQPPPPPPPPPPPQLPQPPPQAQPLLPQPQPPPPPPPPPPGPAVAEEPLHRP

For `CC(=O)O[C@H]1C[C@@H](OC(C)=O)C(C)(C)C2C[C@@H](OC(C)=O)[C@]3(C)C(CC[C@@]4(C)[C@H]([C@H]5CCOC5)C(=O)[C@H]5O[C@]543)[C@]21C` (stereo partly shown) [S1, khayanthone], the “FRET-signal (effect in words)” value [1] was “decreases”, the “Cell number (effect in words)” value (CHO-AA8/Q68-Q68 cells) was “unaffected” and the highest chymotrypsin activity ([2]; 1 μM) was “about 40%”. The “chymotrypsin activities (decline with increasing concentrations)” value ([2]; 3, 10 μM) was about 10%, the “increase of proteasome activity” value ([2]; CHO-AA8/Tet-Off cells, in correlation to DMSO treated controls) was 40-50% and the HSP40 protein expression (HSP40) was “decreased expression; also recorded: slight decrease”. For the same compound, the HSP70 protein expression (HSP70) was “decreased expression; also recorded: slight decrease”, the HSP90 protein expression (HSP90) was “decreased expression; also recorded: slight decrease” and the “climbing distance in 60 sec (height half of the flies climb)” value [3, 5] was ~50 % of the initial distance. For the same compound, the “time half of the flies need for a 6 cm distance” value [3, 5] was 2.3 times of the initial time, the “difference in climbing between treated and untreated flies” value ([3]; until day 18) was “no detectable difference” and the “motor ability / mobility compared to DMSO treated flies (in words)” value ([3]; with increasing age, food with 100 μM, 250 μM) was “improves significantly motor deficits; also recorded: maintain an improved mobility”. For the same compound, the “Number of mutant huntingtin aggregates (fluorescence microscopy images)” value [4] was “decrease with increasing compound concentration”.

Reference: patent US20100298280A1, “Compounds for the Modulation of Huntingtin Aggregation, Methods and Means for Identifying Such Compounds” (priority 2007, published 2010)
